Assay results taken from ChEMBL document CHEMBL1201862, “PubChem BioAssay data set” (2004).
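All cell lines were grown in 96-well plates and treated with compound for 48 hours. GI50: concentration for 50% inhibition of growth.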 Active and inactive are the calls of the source. Cut-off read from the data, not from the text of the source: active = GI50 up to about 1.1 µM and inactive = higher.

Key:
Test in all cases: growth of human tumour cells (NCI), 48 h
TK-10 = test system: TK-10
U-251 = test system: U-251
HOP-62 = test system: HOP-62
KM12 = test system: KM12
MDA-MB-435 = test system: MDA-MB-435
SNB-75 = test system: SNB-75
786-0 = test system: 786-0
Malme-3M = test system: Malme-3M
HL-60 = test system: HL-60
LOX IMVI = test system: LOX IMVI
MDA-N = test system: MDA-N
HCC 2998 = test system: HCC 2998
IGROV-1 = test system: IGROV-1
PC-3 = test system: PC-3
OVCAR-5 = test system: OVCAR-5
SK-MEL-5 = test system: SK-MEL-5
OVCAR-3 = test system: OVCAR-3
RPMI-8226 = test system: RPMI-8226
EKVX = test system: EKVX
BT-549 = test system: BT-549

Structure (SMILES) | GI50 (TK-10) | GI50 (U-251) | GI50 (HOP-62) | GI50 (KM12) | GI50 (MDA-MB-435) | GI50 (SNB-75) | GI50 (786-0) | GI50 (Malme-3M) | GI50 (HL-60) | GI50 (LOX IMVI) | GI50 (MDA-N) | GI50 (HCC 2998) | GI50 (IGROV-1) | GI50 (PC-3) | GI50 (OVCAR-5) | GI50 (SK-MEL-5) | GI50 (OVCAR-3) | GI50 (RPMI-8226) | GI50 (EKVX) | GI50 (BT-549)
C=CC1(c2ccc3ccccc3c2)OCC(CC)(CC)CO1 | 37.5 µM (inactive) | 21.5 µM (inactive) | 27.4 µM (inactive) | 20.8 µM (inactive) | 22.7 µM (inactive) | 47.6 µM (inactive) | 20.2 µM (inactive) | 28.2 µM (inactive) | 21.6 µM (inactive) | 18.4 µM (inactive) | 29.3 µM (inactive) | 20.9 µM (inactive) | 21.9 µM (inactive) | 26.9 µM (inactive) | 18.8 µM (inactive) | 18.5 µM (inactive) | 25.2 µM (inactive) | 57.7 µM (inactive) | – | –
CC(C)(C)c1cc(/C=C2/NC(=O)NC2=O)cc(C(C)(C)C)c1O | 16.4 µM (inactive) | 12.8 µM (inactive) | 17.1 µM (inactive) | 13.2 µM (inactive) | 17.3 µM (inactive) | 12.3 µM (inactive) | 15.6 µM (inactive) | 19.5 µM (inactive) | 10.8 µM (inactive) | 15.8 µM (inactive) | – | – | 16 µM (inactive) | 7.46 µM (inactive) | 15.9 µM (inactive) | 13.7 µM (inactive) | 14.2 µM (inactive) | 11.4 µM (inactive) | 10.9 µM (inactive) | 13.7 µM (inactive)
COC(=O)C1CC(C(=O)OC)c2nc3cc(C)ccc3nc21 (stereo unspecified) | > 100 µM (inactive) | > 100 µM (inactive) | > 100 µM (inactive) | > 100 µM (inactive) | – | > 100 µM (inactive) | > 100 µM (inactive) | > 100 µM (inactive) | > 100 µM (inactive) | > 100 µM (inactive) | – | > 100 µM (inactive) | > 100 µM (inactive) | – | > 100 µM (inactive) | > 100 µM (inactive) | > 100 µM (inactive) | > 100 µM (inactive) | > 100 µM (inactive) | –
CN1CCN(C(=O)CCC(=O)Nc2cc3c(c4ccccc24)-c2ccc4ccccc4c2C3)CC1 | 1.73 µM (inactive) | 2.04 µM (inactive) | 1.69 µM (inactive) | 1.55 µM (inactive) | 1.51 µM (inactive) | – | 1.69 µM (inactive) | 2.03 µM (inactive) | 2 µM (inactive) | 1.77 µM (inactive) | – | 1.37 µM (inactive) | 1.15 µM (inactive) | 1.64 µM (inactive) | 1.67 µM (inactive) | 1.6 µM (inactive) | 1.63 µM (inactive) | 1.96 µM (inactive) | 1.67 µM (inactive) | 1.35 µM (inactive)
COc1ccc(P2(=S)OC(C)(C)C(C)(C)O2)cc1 | > 100 µM (inactive) | > 100 µM (inactive) | > 100 µM (inactive) | > 100 µM (inactive) | > 100 µM (inactive) | > 100 µM (inactive) | > 100 µM (inactive) | > 100 µM (inactive) | > 100 µM (inactive) | > 100 µM (inactive) | > 100 µM (inactive) | – | > 100 µM (inactive) | > 100 µM (inactive) | > 100 µM (inactive) | > 100 µM (inactive) | > 100 µM (inactive) | – | > 100 µM (inactive) | –
CC(=O)OCCn1cnc2nc(Nc3ccccc3)nc(Cl)c21 | > 100 µM (inactive) | 58.3 µM (inactive) | > 100 µM (inactive) | 29.2 µM (inactive) | 25.1 µM (inactive) | – | > 100 µM (inactive) | > 100 µM (inactive) | 47.8 µM (inactive) | 44.4 µM (inactive) | 36.1 µM (inactive) | 74.5 µM (inactive) | > 100 µM (inactive) | 62.7 µM (inactive) | > 100 µM (inactive) | 60.8 µM (inactive) | > 100 µM (inactive) | 89.5 µM (inactive) | > 100 µM (inactive) | –
CCCOc1ccc(/C=C/c2cc(OC)c(OC)c(OC)c2)cc1 | 55.1 µM (inactive) | 0.384 µM (active) | 0.265 µM (active) | 0.305 µM (active) | – | 0.266 µM (active) | 0.481 µM (active) | 0.21 µM (active) | 0.155 µM (active) | 0.445 µM (active) | – | 3.02 µM (inactive) | 0.399 µM (active) | – | 28 µM (inactive) | 0.144 µM (active) | 0.146 µM (active) | 0.456 µM (active) | 6.53 µM (inactive) | –
CC(=O)c1[nH]c(Nc2ccc(C)cc2)c(C(=S)Nc2ccccc2)c1N | 17.3 µM (inactive) | 14.4 µM (inactive) | 20.8 µM (inactive) | 15.9 µM (inactive) | 15 µM (inactive) | 19.9 µM (inactive) | 17.7 µM (inactive) | 17.1 µM (inactive) | 15.8 µM (inactive) | 16.4 µM (inactive) | 16 µM (inactive) | 18.6 µM (inactive) | 16.8 µM (inactive) | – | 32.9 µM (inactive) | 15.6 µM (inactive) | 15.2 µM (inactive) | – | 24.3 µM (inactive) | 15.6 µM (inactive)
CC1C(c2cc(C(C)(C)C)c(O)c(C(C)(C)C)c2)c2cc3c(cc2OC1N1CCOCC1)OCO3 (stereo unspecified) | 15.5 µM (inactive) | – | 16.9 µM (inactive) | 43.9 µM (inactive) | 24 µM (inactive) | 4.34 µM (inactive) | 13.7 µM (inactive) | – | – | 20.3 µM (inactive) | 26.9 µM (inactive) | 12.9 µM (inactive) | 36.2 µM (inactive) | 14.2 µM (inactive) | > 100 µM (inactive) | 17.1 µM (inactive) | 15.8 µM (inactive) | 26.9 µM (inactive) | 23.9 µM (inactive) | –
CS/C(=N\C#N)S/C=C/C(=O)c1ccc(Cl)cc1 | 23.6 µM (inactive) | 31.9 µM (inactive) | 38.2 µM (inactive) | 45.7 µM (inactive) | 24.9 µM (inactive) | 43 µM (inactive) | 20.8 µM (inactive) | 26.4 µM (inactive) | 8.15 µM (inactive) | – | – | 42.4 µM (inactive) | 18.3 µM (inactive) | 46.6 µM (inactive) | 39.4 µM (inactive) | 15.9 µM (inactive) | 15.2 µM (inactive) | – | 66.5 µM (inactive) | –
CCCNC(=S)N/N=C/c1cccc(C)n1 | 65.8 µM (inactive) | 21.9 µM (inactive) | 25.6 µM (inactive) | > 100 µM (inactive) | 36.8 µM (inactive) | – | 26 µM (inactive) | 12.7 µM (inactive) | 25.9 µM (inactive) | 16.6 µM (inactive) | 30.6 µM (inactive) | 19.5 µM (inactive) | 42.7 µM (inactive) | 38.6 µM (inactive) | 44.5 µM (inactive) | 31.7 µM (inactive) | 2.91 µM (inactive) | 24.3 µM (inactive) | 30.9 µM (inactive) | –
Fc1ccccc1CN1COc2c(cc(Cl)c3cccnc23)C1 | 3.09 µM (inactive) | 1.56 µM (inactive) | 1.16 µM (inactive) | 2.23 µM (inactive) | 2.54 µM (inactive) | 1.56 µM (inactive) | 2.65 µM (inactive) | 2.28 µM (inactive) | 0.265 µM (active) | – | – | – | 4.55 µM (inactive) | 1.44 µM (inactive) | 3.05 µM (inactive) | 0.713 µM (active) | 3.75 µM (inactive) | < 0.01 µM (active) | 0.378 µM (active) | –
COc1cc([C@@H]2c3cc4c(cc3[C@@H](Nc3ccc(NC(=O)c5cc(NC(=O)c6cc([N+](=O)[O-])cn6C)cn5C)cc3)[C@H]3COC(=O)[C@H]23)OCO4)cc(OC)c1O | > 65.8 µM (inactive) | 10.3 µM (inactive) | 0.361 µM (active) | 12.5 µM (inactive) | – | 4.89 µM (inactive) | 0.593 µM (active) | 4.35 µM (inactive) | 0.16 µM (active) | 0.274 µM (active) | 0.0308 µM (active) | 6.04 µM (inactive) | 0.216 µM (active) | – | > 61.4 µM (inactive) | 0.188 µM (active) | > 49.4 µM (inactive) | 0.0324 µM (active) | > 40.1 µM (inactive) | > 100 µM (inactive)
Cc1ccc(C(=O)C(C)N)cc1 (stereo unspecified) | > 100 µM (inactive) | > 100 µM (inactive) | > 100 µM (inactive) | > 100 µM (inactive) | – | > 100 µM (inactive) | > 100 µM (inactive) | > 100 µM (inactive) | > 100 µM (inactive) | > 100 µM (inactive) | – | > 100 µM (inactive) | > 100 µM (inactive) | – | > 100 µM (inactive) | > 100 µM (inactive) | > 100 µM (inactive) | > 100 µM (inactive) | > 100 µM (inactive) | –
c1ccc2c(c1)OC(N1CCCC1)c1cnc(N3CCOCC3)nc1-2 (stereo unspecified) | 29.9 µM (inactive) | > 100 µM (inactive) | 57.5 µM (inactive) | > 100 µM (inactive) | 67 µM (inactive) | 17.1 µM (inactive) | 59.8 µM (inactive) | 21.9 µM (inactive) | 74.1 µM (inactive) | 54.3 µM (inactive) | – | – | – | 41.3 µM (inactive) | 22.5 µM (inactive) | – | 34.5 µM (inactive) | 25.7 µM (inactive) | 21.6 µM (inactive) | 17.1 µM (inactive)
COc1cc(C2(C)SCCCS2)cc(OC)c1OC | > 100 µM (inactive) | > 100 µM (inactive) | > 100 µM (inactive) | > 100 µM (inactive) | – | > 100 µM (inactive) | > 100 µM (inactive) | > 100 µM (inactive) | > 100 µM (inactive) | > 100 µM (inactive) | – | > 100 µM (inactive) | > 100 µM (inactive) | – | > 100 µM (inactive) | > 100 µM (inactive) | > 100 µM (inactive) | > 100 µM (inactive) | > 100 µM (inactive) | –
